Several values for one entry are separate records, joined by “and”; a condition that tells them apart may be missing. Identical values can stand only once.

The target of one data set is T1, 5-HT1A receptor (Homo sapiens, UniProt P08908).
T1 construct: host or cells: CHO-K1 (co-expressing Ga15)
T1 sequence (P08908 1-422): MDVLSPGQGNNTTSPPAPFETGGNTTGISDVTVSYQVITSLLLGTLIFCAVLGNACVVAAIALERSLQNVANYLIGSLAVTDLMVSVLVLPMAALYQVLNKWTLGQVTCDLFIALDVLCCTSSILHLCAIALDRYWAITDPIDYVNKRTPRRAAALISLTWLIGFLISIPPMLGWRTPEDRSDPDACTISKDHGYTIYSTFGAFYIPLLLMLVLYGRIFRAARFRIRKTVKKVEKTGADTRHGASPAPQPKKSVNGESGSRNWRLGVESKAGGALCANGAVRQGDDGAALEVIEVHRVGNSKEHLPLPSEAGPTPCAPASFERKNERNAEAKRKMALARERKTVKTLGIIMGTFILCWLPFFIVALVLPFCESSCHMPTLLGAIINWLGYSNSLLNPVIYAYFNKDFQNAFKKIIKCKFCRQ
Briefly: cAMP-Glo assay of 5-HT1A receptor modulation, CHO-K1/5-HT1A/Ga15 (+5-HT1A) vs CHO-K1/Ga15 (−5-HT1A) cells. It counts as cell-based. The conditions noted are these: +5-HT1A vs −5-HT1A CHO-K1 cells; 4 μM forskolin; increasing ligand concentration.

Data set [1] concerns the target T2, 5-HT2A receptor (5-HT2AR) (Mus musculus, UniProt P35363).
T2 construct: host or cells: C57BL/6 mice, in vivo (neuronal receptor)
Put plainly: Drug-induced Head Twitch Response (HTR). Type of data set: in vivo. The conditions noted are these: 1 mg/kg i.p., 15-to-30-minute window post-drug, relative to vehicle.

A short description of data set [2]: Mouse pharmacokinetic (PK) study, parent compound and psilocin metabolite in plasma. Type of data set: in vivo. The conditions noted are these: for Plasma concentration of psilocin: LLOQ 0.5 ng/mL; for Plasma concentration of C(XX): LLOQ 0.25 ng/mL; for Plasma concentration: parent C(XX), BLQ = below 0.25 ng/mL; for AUC0-tlast/Dose of C(XX) / Cmax/Dose of C(XX) / AUC0-inf/Dose of C(XX): plasma. The source says:
Briefly, the procedure was as follows. […] 19, 2022.

The mark [3] stands for this setting: 3 mg/kg oral C(XX), 24 h, individual mice.
Setting [4] is: 10 mg/kg oral C(XX), 24 h, individual mice.
The mark [5] stands for this setting: 3 mg/kg oral C(XX), individual mice, 3 mg/kg.
Where [6] appears, read: 10 mg/kg oral C(XX), individual mice, 10 mg/kg.

T2 sequence (P35363 whole entry): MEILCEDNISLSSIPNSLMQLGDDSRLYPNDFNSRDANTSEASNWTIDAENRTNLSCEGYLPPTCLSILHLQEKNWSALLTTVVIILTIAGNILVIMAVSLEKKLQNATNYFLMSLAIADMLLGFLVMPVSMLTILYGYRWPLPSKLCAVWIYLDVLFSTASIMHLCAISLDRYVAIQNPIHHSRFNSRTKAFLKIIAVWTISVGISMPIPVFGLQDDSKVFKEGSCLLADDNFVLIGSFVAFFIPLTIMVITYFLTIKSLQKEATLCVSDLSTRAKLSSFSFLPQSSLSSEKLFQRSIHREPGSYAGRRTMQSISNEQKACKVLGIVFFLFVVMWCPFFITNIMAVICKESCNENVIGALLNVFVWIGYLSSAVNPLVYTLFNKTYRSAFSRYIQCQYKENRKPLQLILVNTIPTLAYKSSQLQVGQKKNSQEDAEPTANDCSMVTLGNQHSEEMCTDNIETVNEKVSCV

Turning to `CN(C)CCc1c[nH]c2cccc(OC(=O)c3cccc4c3OCCO4)c12` [C(XX)], the “5-HT1A receptor modulation (reduction of forskolin-induced cAMP)” value at 5-HT1A receptor is reported as “significant receptor modulation”. In data set [1], the “Head Twitch Response (HTR) incidence” value is reported as “Elevated incidences of HTR”. Also, the “Plasma concentration of psilocin” value is “BLQ” in data set [2] (1 mg/kg i.v. C(XX), 8 h, individual mice); “BLQ” in data set [2] (1 mg/kg oral C(XX), 24 h, individual mice); “BLQ” in data set [2] (setting [3]); “BLQ” in data set [2] (setting [4]). Also, the “Plasma concentration of C(XX)” value is 1.72 ng/mL in data set [2] (3 mg/kg oral C(XX), 0.25 h, individual mice); 1.13 ng/mL in data set [2] (3 mg/kg oral C(XX), 0.5 h, individual mice); “No Peak (2×) and BLQ” in data set [2] (3 mg/kg oral C(XX), 4 h, individual mice); “No Peak and BLQ (2×)” in data set [2] (3 mg/kg oral C(XX), 6 h, individual mice); “No Peak and BLQ (2×)” in data set [2] (3 mg/kg oral C(XX), 8 h, individual mice); “No Peak” in data set [2] (setting [3]). Also, the “Plasma concentration of C(XX)” value in data set [2] (10 mg/kg oral C(XX), 0.25 h, individual mice) was 10.3 ng/mL; in data set [2] (10 mg/kg oral C(XX), 2 h, individual mice), 1.08 ng/mL; in data set [2] (10 mg/kg oral C(XX), 4 h, individual mice) it was “BLQ”; in data set [2] (10 mg/kg oral C(XX), 6 h, individual mice) it was “BLQ”; in data set [2] (10 mg/kg oral C(XX), 8 h, individual mice) it was “BLQ”; in data set [2] (setting [4]), “No Peak”. The “F of C(XX)” value in data set [2] (3 mg/kg oral C(XX), individual mice) is 0.816% and 1.08% and 0.962%; in data set [2] (3 mg/kg oral C(XX), mean), 0.953 ± 0.132%. Also, the Plasma concentration in data set [2] (1 mg/kg i.v., 2 h, each animal, 1 mg/kg) was 1.14 ng/mL; in data set [2] (1 mg/kg i.v., 6 h, each animal) it was “BLQ”; in data set [2] (1 mg/kg i.v., 8 h, each animal, 1 mg/kg), “BLQ and No (2×)”; in data set [2] (1 mg/kg p.o., 2 h, each animal), “BLQ”; in data set [2] (1 mg/kg p.o., 4 h, each animal), “BLQ”; in data set [2] (1 mg/kg p.o., 6 h, each animal, 1 mg/kg), “No Peak (2×) and BLQ”. Further, the Plasma concentration entry is “No Peak (2×) and BLQ” in data set [2] (1 mg/kg p.o., 8 h, each animal, 1 mg/kg); “No Peak” in data set [2] (1 mg/kg p.o., 24 h, each animal). The AUC0-tlast/Dose in data set [2] (parent compound in plasma, 1 mg/kg i.v., each animal, 1 mg/kg) is 48.0 kg·ng·h/mL/mg. For the same compound, the “AUC0-tlast/Dose of C(XX)” value in data set [2] (1 mg/kg i.v. C(XX), mean) is 52.8 ± 8.30 kg·ng·h/mL/mg; in data set [2] (setting [5]), 0.406 kg·ng·h/mL/mg and 0.494 kg·ng·h/mL/mg and 0.474 kg·ng·h/mL/mg; in data set [2] (3 mg/kg oral C(XX), mean), 0.458 ± 0.0457 kg·ng·h/mL/mg; in data set [2] (setting [6]), 0.565 kg·ng·h/mL/mg and 0.499 kg·ng·h/mL/mg and 0.916 kg·ng·h/mL/mg; in data set [2] (10 mg/kg oral C(XX), mean), 0.660 ± 0.224 kg·ng·h/mL/mg. The “Cmax/Dose of C(XX)” value in data set [2] (1 mg/kg p.o. C(XX), mean) is 0.620 ± 0.0996 kg·ng/mL/mg; in data set [2] (setting [5]), 0.497 kg·ng/mL/mg and 0.573 kg·ng/mL/mg and 0.643 kg·ng/mL/mg; in data set [2] (3 mg/kg oral C(XX), mean) it was 0.571 ± 0.0734 kg·ng/mL/mg; in data set [2] (setting [6]) it was 0.299 kg·ng/mL/mg and 0.912 kg·ng/mL/mg and 1.03 kg·ng/mL/mg; in data set [2] (10 mg/kg oral C(XX), mean) it was 0.747 ± 0.392 kg·ng/mL/mg. Moreover, the “AUC0-inf/Dose of C(XX)” value in data set [2] (setting [5]) is 0.433 kg·ng·h/mL/mg and 0.572 kg·ng·h/mL/mg and 0.510 kg·ng·h/mL/mg; in data set [2] (3 mg/kg oral C(XX), mean), 0.505 ± 0.0700 kg·ng·h/mL/mg.
For `COC(=O)c1cccc(C(=O)Oc2cccc3[nH]cc(CCN(C)C)c23)c1` [C(XLIII)], the “5-HT1A receptor modulation (reduction of forskolin-induced cAMP)” value at 5-HT1A receptor was “receptor modulation at higher ligand concentrations”.
As to `COCCOCCOCC(=O)Oc1cccc2[nH]cc(CCN(C)C)c12` [C(III)], the “5-HT1A receptor modulation (reduction of forskolin-induced cAMP)” value on 5-HT1A receptor is on record as “significant receptor modulation”. Moreover, the “Head Twitch Response (HTR) incidence” value in data set [1] is listed as “Elevated incidences of HTR”.
As for `CN(C)CCc1c[nH]c2cccc(OC(=O)c3cccc(C(=O)Oc4cccc5[nH]cc(CCN(C)C)c45)c3)c12` [C(VII)], the “5-HT1A receptor modulation (reduction of forskolin-induced cAMP)” value at 5-HT1A receptor was “no significant receptor modulation”. Further, the “Head Twitch Response (HTR) incidence” value in data set [1] is recorded as “Elevated incidences of HTR”.
For `NCCc1c[nH]c2ccc(O)cc12` [serotonin, reference compound], the “5-HT1A receptor modulation (reduction of forskolin-induced cAMP)” value on 5-HT1A receptor is “reduction in cAMP levels”.
